# Source: patent publication US9708336B2, “Metallo-beta-lactamase inhibitors” (priority 2014, dated 2017)
# pIC50: −log10 of the molar value. Read-outs that look alike come from different tables or passages of the source.
# Key:
# [1] = target: NDM-1 (Klebsiella pneumoniae, UniProt C7C422); test: biochemical; format: biochemical; conditions: NDM-1 enzyme, read-out: NDM-1 IC50
# [2] = target: IMP-1 (Serratia marcescens, UniProt P52699); test: biochemical; format: biochemical; conditions: IMP-1 enzyme, read-out: IMP-1 IC50
# [3] = target: VIM-1 (Pseudomonas aeruginosa (strain ATCC 15692 / DSM 22644 / CIP 104116 / JCM 14847 / LMG 12228 / 1C / PRS 101 / PAO1), UniProt A0A0F7KYQ8); test: Enzyme activity: determination of IC50, fluorescence assay with CCF2-FA substrate (VIM-1); format: biochemical
# [4] = system: Escherichia coli expressing NDM-1 (CLB30016); test: Antibiotic potentiation activity: synergistic concentration (MITC95) with imipenem, OD600 growth; format: cell-based; conditions: 95% growth inhibition
# How it was run: (§1)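 Compound activity is tested with and without imipenem, which is present at 4 μg/ml (or 1 μg/ml) in the well. Bacteria in 1.1× CAMHB are incubated 22–24 h at 35 °C; absorbance gives the growth endpoint.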
# [5] = system: Klebsiella pneumoniae expressing VIM-1 (IHMA599644); test: as above; format: cell-based; conditions: 95% growth inhibition
# How it was run: as §1
# [6] = system: Serratia marcescens expressing IMP-1 (CL5741); test: as above; format: cell-based; conditions: 95% growth inhibition
# How it was run: as §1
# [7] = VIM-1 enzyme, CCF2-FA substrate, read-out: VIM-1 IC50
# [8] = Klebsiella pneumoniae IHMA599644 (VIM-1)
# [9] = Serratia marcescens CL5741 (IMP-1)
# [10] = VIM-1 enzyme, CCF2-FA fluorescence assay, read-out: VIM-1 IC50
# [11] = Escherichia coli expressing NDM-1 (CLB30016)
# [12] = Klebsiella pneumoniae expressing VIM-1 (IHMA599644)
# [13] = Serratia marcescens expressing IMP-1 (CL5741)
# IMP-1, sequence (P52699 whole entry, looked up): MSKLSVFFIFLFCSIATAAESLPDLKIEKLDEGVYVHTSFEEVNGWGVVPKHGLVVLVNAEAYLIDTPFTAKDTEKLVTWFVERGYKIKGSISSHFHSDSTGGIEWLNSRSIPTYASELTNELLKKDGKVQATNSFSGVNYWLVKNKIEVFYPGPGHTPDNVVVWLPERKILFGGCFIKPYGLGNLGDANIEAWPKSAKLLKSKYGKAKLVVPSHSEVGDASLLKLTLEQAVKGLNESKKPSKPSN
# NDM-1, sequence (C7C422 whole entry, looked up, species assumed): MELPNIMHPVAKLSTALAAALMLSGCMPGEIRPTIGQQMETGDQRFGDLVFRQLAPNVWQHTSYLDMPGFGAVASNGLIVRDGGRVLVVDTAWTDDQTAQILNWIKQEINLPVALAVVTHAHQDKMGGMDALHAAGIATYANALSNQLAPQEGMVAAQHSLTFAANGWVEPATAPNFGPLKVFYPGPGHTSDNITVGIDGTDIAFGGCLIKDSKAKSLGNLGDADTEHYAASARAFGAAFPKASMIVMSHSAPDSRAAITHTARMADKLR
SMILES,pIC50 ([1]; CCF2-FA substrate),pIC50 ([2]; CCF2-FA substrate),"pIC50 [3, 7]","Escherichia coli MITC95 ([4]; (CLB30016, NDM-1)) [µM]","Klebsiella pneumoniae MITC95 [5, 8] [µM]","Serratia marcescens MITC95 [6, 9] [µM]",pIC50 ([1]; CCF2-FA fluorescence assay),pIC50 ([2]; CCF2-FA fluorescence assay),"pIC50 [3, 10]","Escherichia coli MITC95 [4, 11] [µM]","Klebsiella pneumoniae MITC95 [5, 12] [µM]","Serratia marcescens MITC95 [6, 13] [µM]","pIC50 ([3]; VIM-1 IC50, VIM-1 enzyme, CCF2-FA substrate)"
"NS(=O)(=O)c1c(C(F)(F)F)ccc(N2CCN(CCCO)CC2)c1-c1nnn[nH]1 [Example 664, 3-[4-(3-hydroxypropyl)piperazin-1-yl]-2-(1H-tetrazol-5-yl)-6-(trifluoromethyl)benzenesulfonamide]",7.74,7.41,7.28,0.25,6.25,0.418,–,–,–,–,–,–,–
"NS(=O)(=O)c1c(C(F)(F)F)ccc(-c2ccc(CO)cc2)c1-c1nn[nH]n1 [Example 445, 4′-(hydroxymethyl)-2-(2H-tetrazol-5-yl)-4-(trifluoromethyl)-[1,1′-biphenyl]-3-sulfonamide]",–,–,–,–,–,–,8.89,8.93,8.87,1.547,4.688,0.125,–
"Cc1ccc(-c2ccc(C(F)(F)F)c(S(N)(=O)=O)c2-c2nnn[nH]2)c2[nH]c(N)nc12 [Example 568, 3-(2-amino-4-methyl-1H-benzo[d]imidazol-7-yl)-2-(1H-tetrazol-5-yl)-6-(trifluoromethyl)benzenesulfonamide]",10.01,8.93,9.79,0.3906,1.563,1.563,–,–,–,–,–,–,–
"CN(CCO)Cc1ccc(-c2cccc(S(N)(=O)=O)c2-c2nnn[nH]2)cc1 [Example 335, 4′-(((2-hydroxyethyl)(methyl)amino)methyl)-2-(1H-tetrazol-5-yl)-[1,1′-biphenyl]-3-sulfonamide]",–,–,–,–,–,–,7.82,6.64,6.64,0.3906,25,3.125,–
"NS(=O)(=O)c1cccc(-c2ccc(CN[C@H]3COC[C@@H]3O)cc2)c1-c1nnn[nH]1 [Example 365, 4′-({[(3S,4R)-4-hydroxytetrahydrofuran-3-yl]amino}methyl)-2-(1H-tetrazol-5-yl)biphenyl-3-sulfonamide]",–,–,–,–,–,–,8.27,7.28,6.41,1.563,75,2.344,–
"C[N+](C)(C)CCN1CCC(c2ccc(-c3ccc(C(F)(F)F)c(S(N)(=O)=O)c3-c3nnn[nH]3)cc2)CC1 [Example 677, N,N,N-trimethyl-2-{4-[3′-sulfamoyl-2′-(1H-tetrazol-5-yl)-4′-(trifluoromethyl)biphenyl-4-yl]piperidin-1-yl}ethanaminium]",8.38,9.27,7.71,12.5,>200,12.5,–,–,–,–,–,–,–
"N=C(N)NCc1ccc(-c2ccc(C(F)(F)F)c(S(N)(=O)=O)c2-c2nn[nH]n2)cc1 [Example 440, 4′-(guanidinomethyl)-2-(2H-tetrazol-5-yl)-4-(trifluoromethyl)-[1,1′-biphenyl]-3-sulfonamide]",–,–,–,–,–,–,8.41,8.47,9.45,0.25,0.7656,0.0625,–
"NS(=O)(=O)c1cccc(-c2ccc(NCC3CCN3)nc2)c1-c1nnn[nH]1 (stereo not drawn) [Example 638, 3-[6-(azetidin-2-ylmethylamino)-3-pyridyl]-2-(1H-tetrazol-5-yl)benzenesulfonamide]",7.26,6.23,–,0.7813,12.5,12.5,–,–,–,–,–,–,6.74
"NS(=O)(=O)c1cccc(-c2ccc(CN3CCCC3CO)cc2)c1-c1nnn[nH]1 (stereo not drawn) [Example 395, 4′-{[2-(hydroxymethyl)pyrrolidin-1-yl]methyl}-2-(1H-tetrazol-5-yl)biphenyl-3-sulfonamide]",–,–,–,–,–,–,7.84,6.65,6.46,1.563,100,3.125,–
